Data: the CheMixHub ionic liquid set
± gives the uncertainty stated by the source.

Assay: xn = mol fraction of the nth substance listed

CC[n+]1ccn(C)c1.N#C[N-]C#N + OCC(F)(F)F + CCO
viscosity [mPa·s], 100 kPa
Conditions | 298.15 K | 303.15 K | 308.15 K | 313.15 K | 318.15 K
x1 = 0.0355, x2 = 0.8508 | – | 0.27 ± 0.2 | 0.22 ± 0.2 | 0.16 ± 0.2 | 0.15 ± 0.2
x1 = 0.0692, x2 = 0.8058 | 0.93 ± 0.2 | 0.78 ± 0.2 | 0.7 ± 0.2 | 0.61 ± 0.2 | 0.57 ± 0.2
x1 = 0.1059, x2 = 0.7569 | 1.52 ± 0.6 | 1.32 ± 0.6 | 1.19 | 1.07 | 1
x1 = 0.1341, x2 = 0.7174 | 1.96 ± 0.6 | 1.71 ± 0.6 | 1.55 ± 0.6 | 1.41 ± 0.6 | 1.31 ± 0.6
x1 = 0.1703, x2 = 0.668 | 2.49 ± 0.6 | 2.19 ± 0.6 | 1.99 ± 0.6 | 1.82 ± 0.6 | –
x1 = 0.2026, x2 = 0.6226 | 2.94 ± 0.6 | 2.59 ± 0.6 | 2.36 ± 0.6 | 2.16 ± 0.6 | –
x1 = 0.2373, x2 = 0.574 | 3.4 ± 0.6 | 3.01 ± 0.6 | 2.74 ± 0.6 | 2.51 ± 0.6 | –
x1 = 0.2705, x2 = 0.5266 | 3.82 ± 0.6 | 3.39 ± 0.6 | 3.09 ± 0.6 | 2.82 ± 0.6 | –
x1 = 0.3059, x2 = 0.4761 | 4.24 ± 0.6 | 3.77 ± 0.6 | 3.43 ± 0.6 | 3.14 ± 0.6 | –
x1 = 0.3367, x2 = 0.4558 | 4.59 ± 0.6 | 4.1 ± 0.6 | 3.72 ± 0.6 | 3.39 ± 0.6 | –
x1 = 0.3741, x2 = 0.4288 | 5 ± 0.6 | 4.47 ± 0.6 | 4.05 ± 0.6 | 3.69 ± 0.6 | –
x1 = 0.4093, x2 = 0.4055 | 5.37 ± 0.6 | 4.8 ± 0.6 | 4.35 ± 0.6 | 3.95 ± 0.6 | –
x1 = 0.4361, x2 = 0.3894 | 5.63 ± 0.6 | 5.04 ± 0.6 | 4.56 ± 0.6 | 4.14 ± 0.6 | –
x1 = 0.4751, x2 = 0.3581 | 6.01 ± 0.6 | 5.38 ± 0.6 | 4.86 ± 0.6 | 4.41 ± 0.6 | –
x1 = 0.5091, x2 = 0.3393 | 6.33 ± 0.6 | 5.67 ± 0.6 | 5.11 ± 0.6 | 4.62 ± 0.6 | –
x1 = 0.539, x2 = 0.314 | 6.6 ± 0.6 | 5.91 ± 0.6 | 5.32 ± 0.6 | 4.81 ± 0.6 | –
x1 = 0.576, x2 = 0.2854 | 6.92 ± 0.6 | 6.19 ± 0.6 | 5.57 ± 0.6 | 5.03 ± 0.6 | –
x1 = 0.6046, x2 = 0.2689 | 7.16 ± 0.6 | 6.41 ± 0.6 | 5.75 ± 0.6 | 5.19 ± 0.6 | –
x1 = 0.6344, x2 = 0.2517 | 7.42 ± 0.61 | 6.62 ± 0.6 | 5.94 ± 0.6 | 5.36 ± 0.6 | –
x1 = 0.673, x2 = 0.2236 | 7.74 ± 0.61 | 6.9 ± 0.6 | 6.18 ± 0.6 | 5.57 ± 0.6 | –
x1 = 0.7094, x2 = 0.2009 | 8.04 ± 0.61 | 7.15 ± 0.61 | 6.4 ± 0.6 | 5.77 ± 0.6 | –
x1 = 0.7331, x2 = 0.1948 | 8.23 ± 0.61 | 7.31 ± 0.61 | 6.54 ± 0.6 | 5.9 ± 0.6 | –
x1 = 0.7722, x2 = 0.1661 | 8.55 ± 0.61 | 7.57 ± 0.61 | 6.77 ± 0.6 | 6.11 ± 0.6 | –
x1 = 0.8061, x2 = 0.1434 | 8.84 ± 0.61 | 7.79 ± 0.61 | 6.97 ± 0.61 | 6.29 ± 0.6 | –

CCCC[n+]1ccn(C)c1.F[B-](F)(F)F + OCCO
298.15 K, 100 kPa, x1 = 1
Conditions | electrical conductivity [S/m] | viscosity [mPa·s]
– | 0.243 ± 0.002 | 104.7 ± 2.6

CCCC[n+]1ccn(C)c1.F[B-](F)(F)F + OCCOCCOCCOCCO
Conditions | viscosity [mPa·s]
298.15 K, 101 kPa, x2 = 0 | 94.4 ± 3

CCCC[n+]1ccn(C)c1.O=C([O-])C(F)(F)F + OCCOCCOCCOCCO
298.15 K, 101 kPa
Conditions | viscosity [mPa·s]
x2 = 0 | 71.1 ± 1.9
x2 = 0.5 | 71 ± 1.9
